Assay results published in patent publication US9862702B2, “Processes for the preparation of pesticidal compounds” (Dow AgroSciences LLC, priority 2013, dated 2018).
Structures can show the parent of a compound that is named as a salt.

Assays:
[1] = tested on: Sweetpotato Whitefly Crawler (Bemisia tabaci) (BEMITA); assay: Bioassays on Sweetpotato Whitefly Crawler, foliar spray on infested cotton plants; assay type: in vivo; settings: 200 ppm test solution sprayed on cotton leaves until runoff, live nymphs counted after 8-9 days at 82° F., 50% RH, read-out: BEMITA rating (% Control of Mortality, Abbott-corrected)
Excerpt: Example B Bioassays on Sweetpotato Whitefly Crawler (Bemisia tabaci) (BEMITA.)
The sweetpotato whitefly, Bemisia tabaci (Gennadius), has been recorded in the United States since the late 1800s. In 1986 in Florida, Bemisia tabaci became an extreme economic pest. Whiteflies usually feed on the lower surface of their host plant leaves. From the egg hatches a minute crawler stage that moves about the leaf until it inserts its microscopic, threadlike mouthparts to feed by sucking sap from the phloem. Adults and nymphs excrete honeydew (largely plant sugars from feeding on phloem), a sticky, viscous liquid in which dark sooty molds grow. Heavy infestations of adults and their progeny can cause seedling death, or reduction in vigor and yield of older plants, due simply to sap removal. The honeydew can stick cotton lint together, making it more difficult to gin and therefore reducing its value. Sooty mold grows on honeydew-covered substrates, obscuring the leaf and reducing photosynthesis, and reducing fruit quality grade. It transmitted plant-pathogenic viruses that had never affected cultivated crops and induced plant physiological disorders, such as tomato irregular ripening and squash silverleaf disorder. Whiteflies are resistant to many formerly effective pesticides.
Cotton plants grown in 3-inch pots, with 1 small (3-5 cm) true leaf, were used at test substrate. The plants were placed in a room with whitefly adults. Adults were allowed to deposit eggs for 2-3 days. After a 2-3 day egg-laying period, plants were taken from the adult whitefly room. Adults were blown off leaves using a hand-held Devilbliss sprayer (23 psi). Plants with egg infestation (100-300 eggs per plant) were placed in a holding room for 5-6 days at 82° F. and 50% RH for egg hatch and crawler stage to develop. Four cotton plants were used for each treatment. Compounds (2 mg) were dissolved in 1 mL of acetone solvent, forming stock solutions of 2000 ppm. The stock solutions were diluted 10× with 0.025% Tween 20 in water to obtain a test solution at 200 ppm. A hand-held Devilbliss sprayer was used for spraying a solution to both sides of cotton leaf until runoff. Reference plants (solvent check) were sprayed with the diluent only. Treated plants were held in a holding room for 8-9 days at approximately 82° F. and 50% RH prior to grading. Evaluation was conducted by counting the number of live nymphs per plant under a microscope.

[2] = tested on: Green Peach Aphid ("GPA") (Myzus persicae) (MYZUPE); assay: Bioassays on Green Peach Aphid (GPA), foliar spray on infested cabbage seedlings; assay type: in vivo; settings: 72 h, 200 ppm test solution sprayed on cabbage leaves until runoff, live aphids counted after three days at about 25° C., read-out: MYZUPE rating (% Control of Mortality, Abbott-corrected)
Excerpt: Example A Bioassays on Green Peach Aphid (“GPA”) (Myzus persicae) (MYZUPE.)
GPA is the most significant aphid pest of peach trees, causing decreased growth, shriveling of leaves, and the death of various tissues. It is also hazardous because it acts as a vector for the transport of plant viruses, such as potato virus Y and potato leafroll virus to members of the nightshade/potato family Solanaceae, and various mosaic viruses to many other food crops. GPA attacks such plants as broccoli, burdock, cabbage, carrot, cauliflower, daikon, eggplant, green beans, lettuce, macadamia, papaya, peppers, sweet potatoes, tomatoes, watercress and zucchini among other plants. GPA also attacks many ornamental crops such as carnations, chrysanthemum, flowering white cabbage, poinsettia and roses. GPA has developed resistance to many pesticides.
Several molecules disclosed herein were tested against GPA using procedures described below.
Cabbage seedling grown in 3-in pots, with 2-3 small (3-5 cm) true leaves, were used as test substrate. The seedlings were infested with […] (wingless adult and nymph stages) one day prior to chemical application. Four posts with individual seedlings were used for each treatment. Test compounds (2 mg) were dissolved in 2 mL of acetone/methanol (1:1) solvent, forming stock solutions of 1000 ppm test compound. The stock solutions were diluted 5× with 0.025% Tween 20 in water to obtain the solution at 200 ppm test compound. A hand-held aspirator-type sprayer was used for spraying a solution to both sides of the cabbage leaves until runoff. Reference plants (solvent check) were sprayed with the diluent only containing 20% by volume acetone/methanol (1:1) solvent. Treated plants were held in a holding room for three days at approximately 25° C. and ambient relative humidity (RH) prior to grading. Evaluation was conducted by counting the number of live aphids per plant under a microscope. Percent Control was measured by using Abbott's correction formula (W. S. Abbott, “A Method of Computing the Effectiveness of an Insecticide” J. Econ. Entomol 18 (1925), pp. 265-267) as follows. Corrected % Control=100*(X−Y)/X • where • X=No. of live aphids on solvent check plants and • Y=No. of live aphids on treated plants
The results are indicated in the table entitled “Table 1: GPA (MYZUPE) and sweetpotato whitefly-crawler (BEMITA) Rating Table”.

| melting point | SMILES | mortality at 200 ppm [1] | mortality at 200 ppm [2] |
| --- | --- | --- | --- |
| 141 to 143 °C | O=[N+]([O-])c1cn(-c2cccnc2)nc1Cl [Compound 5c, 3-(3-Chloro-4-nitro-1H-pyrazol-1-yl)pyridine] | – | – |
| – | O=C(O)/C=N/Nc1cccnc1 [Compound 6a, (E)-2-((2-Pyridin-3-yl)hydrazono)acetic Acid Hydrochloride] | 0 to 80% | 0 to 80% |
| – | N#CC1CC(Cl)=NN1c1cccnc1 (stereo not drawn) [Compound 6b, 3-Chloro-1-(pyridine-3-yl)-4,5-dihydro-1H-pyrazole-5-carbonitrile] | < 0% | 0 to 80% |
| – | COC(=O)C1CC(Cl)=NN1c1cccnc1 (stereo not drawn) [Compound 6c, Methyl 3-chloro-1-(pyridin-3-yl)-4,5-dihydro-1H-pyrazole-5-carboxylate] | 80 to 100% | 0 to 80% |
| – | COC(=O)c1cc(Cl)nn1-c1cccnc1 [Compound 6d, Methyl 3-chloro-1-(pyridin-3-yl)-1H-pyrazole-5-carboxylate] | < 0% | 0 to 80% |
| – | O=C(O)c1cc(Cl)nn1-c1cccnc1 [Compound 6e, 3-Chloro-1-(pyridine-3-yl)-1H-pyrazole-5-carboxylic Acid Hydrochloride] | < 0% | 0 to 80% |
| – | CCOC(=O)C1CC(=O)NN1c1cccnc1 (stereo not drawn) [Compound 18.6, Ethyl 5-oxo-2-(pyridin-3-yl)pyrazolidine-3-carboxylate] | 0 to 80% | 0 to 80% |
| – | CCOC(=O)C1CC(Cl)=NN1c1cccnc1 (stereo not drawn) [Compound 19.6, Ethyl 3-chloro-1-(pyridin-3-yl)-4,5-dihydro-1H-pyrazole-5-carboxylate] | 0 to 80% | 0 to 80% |
